Data from patent US11878965B2, “Inhibitors of peptidylarginine deiminases” (Gilead Sciences, Inc., priority 2020, dated 2024).

Target: human PAD4 (Homo sapiens (Human), UniProt Q9UM07)
Experiment: In Vitro PAD4 BAEE Biochemical Assay
Settings: geometric mean of multiple experiments
Outline: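 Deimination of BAEE substrate (3 mM) measured as ammonia via o-phthalaldehyde–DTT isoindole fluorescence, 405/535 nm. Tag-free bacterially expressed human PAD4 at 5 nM with 2 mM calcium chloride, pH 7.6 MOPS buffer, 30 min compound preincubation then 2 h reaction, both at 25 °C.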

[1] = human PAD4, BAEE substrate, 5 nM PAD4, 2 mM calcium chloride, 3 mM BAEE

Chain of human PAD4 (Q9UM07 2-663): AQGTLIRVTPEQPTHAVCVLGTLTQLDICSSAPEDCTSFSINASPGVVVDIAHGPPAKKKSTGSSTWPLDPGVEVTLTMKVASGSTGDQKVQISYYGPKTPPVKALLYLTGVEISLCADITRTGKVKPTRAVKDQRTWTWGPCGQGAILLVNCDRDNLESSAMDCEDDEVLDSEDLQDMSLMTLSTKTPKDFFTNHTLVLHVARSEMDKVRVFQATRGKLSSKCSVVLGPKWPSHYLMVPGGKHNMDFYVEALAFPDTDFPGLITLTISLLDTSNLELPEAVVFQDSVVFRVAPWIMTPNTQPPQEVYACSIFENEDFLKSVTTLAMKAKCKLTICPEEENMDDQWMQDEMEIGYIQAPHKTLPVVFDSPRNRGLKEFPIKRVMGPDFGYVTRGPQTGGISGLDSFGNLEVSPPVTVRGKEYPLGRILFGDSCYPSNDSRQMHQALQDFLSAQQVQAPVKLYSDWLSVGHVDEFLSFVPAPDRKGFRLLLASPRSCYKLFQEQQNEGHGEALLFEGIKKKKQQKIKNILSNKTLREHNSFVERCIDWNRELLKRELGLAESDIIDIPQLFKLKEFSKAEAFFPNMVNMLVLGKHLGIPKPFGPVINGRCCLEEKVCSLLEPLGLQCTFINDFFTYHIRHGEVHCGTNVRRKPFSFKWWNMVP

| Compound | IC50 [1] | IC50 (recombinant PAD4 5 nM, 2 mM calcium chloride, 3 mM BAEE substrate) |
| --- | --- | --- |
| COc1cc(C(=O)N2CCC[C@@H](N)[C@H]2C)cc2nc(-c3cc4ccc(N(C)S(C)(=O)=O)nc4n3CC3CC3)n(C)c12 [Example 4, N-(2-(5-((2R,3R)-3-amino-2-methylpiperidine-1-carbonyl)-7-methoxy-1-methyl-1H-benzo[d]imimidazol-2-yl)-1-(cyclopropylmethyl)-1H-pyrrolo [2,3-b]pyridin-6-yl)-N-methylmethanesulfonamide] | 0.149 µM | – |
| C[C@@H](NC(=O)C12CC(C#N)(C1)C2)c1ccc2cc(-c3nc4cc(C(=O)N5C[C@H](N)[C@@H]6CC[C@H]5C6)cc(F)c4n3C3CC3)n(CC3CC3)c2n1 [Example 233, N-((R)-1-(2-(5-((1S,4R,5R)-4-amino-2-azabicyclo[3.2.1]octane-2-carbonyl)-1-cyclopropyl-7-fluoro-1H-benzo[d]imidazol-2-yl)-1-(cyclopropylmethyl)-1H-pyrrolo[2,3-b]pyridin-6-yl)ethyl)-3-cyanobicyclo[1.1.1]pentane-1-carboxamide] | – | 0.0782 µM |
| COc1cc(C(=O)N2CCC[C@@H](N)C2)cc2nc(-c3cc4ccc([C@@H](C)NC(=O)C5CC5(F)F)cc4n3CC3CC3)n(C3CC3)c12 (stereo partly drawn) [Example 153, N-((R)-1-(2-(5-((R)-3-aminopiperidine-1-carbonyl)-1-cyclopropyl-7-methoxy-1H-benzo[d]imidazol-2-yl)-1-(cyclopropylmethyl)-1H-indol-6-yl)ethyl)-2,2-difluorocyclopropane-1-carboxamide] | 0.102 µM | – |
| COc1cc(C(=O)N2C[C@H](N)CCN2C)cc2nc(-c3cc4ccc([C@@H](C)NC(=O)c5c(C)cccc5C)nc4n3CC3CC3)n(C)c12 [Example 172, N-((R)-1-(2-(5-((R)-5-amino-2-methylhexahydropyridazine-1-carbonyl)-7-methoxy-1-methyl-1H-benzo[d]imidazol-2-yl)-1-(cyclopropylmethyl)-1H-pyrrolo[2,3-b]pyridin-6-yl)ethyl)-2,6-dimethylbenzamide] | 0.147 µM | – |

The remaining molecules from weak to strong by IC50 [1], led by results:

| IC50 [1] | IC50 (recombinant PAD4 5 nM, 2 mM calcium chloride, 3 mM BAEE substrate) | Compound |
| --- | --- | --- |
| 50 µM | – | COc1cc(C(=O)N2CCC[C@@H](N)C2)cc2nc(-c3cc4ccc(N(CC5CC5)S(C)(=O)=O)nc4n3CC3CC3)n(C)c12 [Example 20, (R)-N-(2-(5-(3-aminopiperidine-1-carbonyl)-7-methoxy-1-methyl-1H-benzo[d]imidazol-2-yl)-1-(cyclopropylmethyl)-1H-pyrrolo [2,3-b]pyridin-6-yl)-N-(cyclopropylmethyl) methanesulfonamide] |
| 11.2 µM | – | Cc1cc2c(cc1C(=O)N1C[C@H]3CC[C@@H]1[C@@H]3N)nc(-c1cc3ccc(N(C(F)F)S(C)(=O)=O)nc3n1CC1CC1)n2C [Example 57, N-(2-(5-((1R,4R,7R)-7-amino-2-azabicyclo[2.2.1]heptane-2-carbonyl)-1,6-dimethyl-1H-benzo[d]imidazol-2-yl)-1-(cyclopropylmethyl)-1H-pyrrolo[2,3-b]pyridin-6-yl)-N-(difluoromethyl) methanesulfonamide] |
| 0.164 µM | – | CCS(=O)(=O)N(C)c1ccc2cc(-c3nc4cc(C(=O)N5CCC[C@@H](N)C5)cc(OC)c4n3C)n(CC3CC3)c2n1 [Example 7, (R)-N-(2-(5-(3-aminopiperidine-1-carbonyl)-7-methoxy-1-methyl-1H-benzo[d]imidazol-2-yl)-1-(cyclopropylmethyl)-1H-pyrrolo [2,3-b]pyridin-6-yl)-N-methylethanesulfonamide] |
| 0.0922 µM | – | [2H]C([2H])([2H])C(C(=O)N[C@H](C)c1ccc2cc(-c3nc4cc(C(=O)N5C[C@H](N)CCN5C)cc(OC)c4n3C)n(CC3CC3)c2n1)(C([2H])([2H])[2H])C([2H])([2H])[2H] [Example 189, N-((R)-1-(2-(5-((R)-5-amino-2-methylhexahydropyridazine-1-carbonyl)-7-methoxy-1-methyl-1H-benzo[d]imidazol-2-yl)-1-(cyclopropylmethyl)-1H-pyrrolo[2,3-b]pyridin-6-yl)ethyl)-2,2-bis(methyl-d3)propanamide] |
